Patent publication US20040116420A1 (priority 2001, published 2004)
pIC50: −log10 of the molar value.

Experiments:
HSV-1 = assay: Antiviral activity, HSV-1 in Vero cells, plaque method; type: cell-based; conditions: Human alphaherpesvirus 1, 20 hours, 90% inhibition of plaque formation
How it was run: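 HSV-1 (50,000 pfu in 2% FBS-DMEM) was added to Vero cells and removed, then the compound was applied in 2% FBS-DMEM for 20 h at 37° C, 5% CO2. After a freeze-thaw, virus yield in the medium was titred by plaque assay. EC90 is the concentration giving 90% plaque reduction versus the compound-free control.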

HSV-1 protease = molecular target: T1, HSV-1 protease (Human herpesvirus 1, UniProt P10210); assay: Enzymatic assay for HSV-1 protease (assembly) inhibitor, fluorescence polarization; type: biochemical; conditions: read-out: HSV-1 Enzyme inhibition IC50
T1 construct: 6xHis (N); made in house; host or cells: baculovirus expression system
T1 sequence (P10210 1-247): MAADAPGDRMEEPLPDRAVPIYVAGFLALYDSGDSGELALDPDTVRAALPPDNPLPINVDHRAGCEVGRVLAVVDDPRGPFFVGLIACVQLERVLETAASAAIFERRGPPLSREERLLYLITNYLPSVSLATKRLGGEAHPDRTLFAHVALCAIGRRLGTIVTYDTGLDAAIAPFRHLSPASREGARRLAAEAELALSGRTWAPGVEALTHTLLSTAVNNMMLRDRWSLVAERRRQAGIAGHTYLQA
How it was run: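 His6-tagged HSV-1 UL26 protease, baculovirus-expressed, preincubated 30 min at RT with compound in 1 M citrate/phosphate buffer pH 7.4 with 20% glycerol and 2 mM TCEP. A biotin-HTYLQA*SERFRIK-DTAF substrate was then cleaved for 60 min at RT, stopped with avidin, and read by fluorescence polarization versus no-inhibitor control.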

Vero cells = assay: Cytotoxicity, Vero cells, Alamar Blue; type: cell-based; conditions: 25 μM, 20 hours
Method: An Assay Method for Cytotoxicity
The Vero cells were sown on a 96-well plate and then cultured overnight. The culture supernatant was removed, and 200 μl of 2% FBS-DMEM comprising 25 μM of the test compound was added. In this case, a substance to which 2% FBS-DMEM not comprising any test compound had been added was determined as a control. These cells were incubated in the presence of 5% CO2 at 37° C. for 20 hours. Alamar Blue (20 μl) was added to the cells, and cells were incubated for about 6 hours until the color of the control changed. The ratio of the absorbance was assayed using a microplate reader for absorption, and the value relative to the control was determined to be the ratio of living cells.

Row | EC90 (HSV-1) [µM] | pIC50 (HSV-1 protease) | Structure (SMILES) | Cell viability (% of control) (Vero cells) [%]
1 | 6.1 | < 4.70 | Cc1c(NC(=O)OC(C)(C)C)ccc2nc(N3C[C@H](OCc4ccccc4)C[C@H]3C(=O)N(C)CCc3cccnc3)oc(=O)c12 [Compound No.115, (2-{4R-Benzyloxy-2S-[methyl-(2-pyridin-3-yl-ethyl)-carbamoyl]-pyrrolidin-1-yl}-5-methyl-4-oxo-4H-benzo[d][1,3]oxazin-6-yl)-carbamic acid tert-butyl ester] | 71.4
2 | 10.2 | 5.74 | COc1cccc(C(=O)Nc2ccc3nc(NC(C)(C)C(=O)N(C)CCc4ccccn4)oc(=O)c3c2C)c1 [Compound No.162, 3-Methoxy-N-(5-methyl-2-{1-methyl-1-[methyl-(2-pyridin-2-yl-ethyl)-carbamoyl]-ethylamino}-4-oxo-4H-benzo[d][1,3]oxazin-6-yl)-benzamide] | 75.5
3 | > 12.5 | < 4.70 | Cc1c(NC(=O)OC(C)(C)C)ccc2nc(N3CCC[C@H]3C(=O)N(C)CCc3ccccn3)oc(=O)c12 [Compound No.91, (5-Methyl-2-{2S-[methyl-(2-pyridin-2-yl-ethyl)-carbamoyl]-pyrrolidin-1-yl}-4-oxo-4H-benzo[d][1,3]oxazin-6-yl)-carbamic acid tert-butyl ester] | 92.3
4 | > 25 | 5.80 | Cc1c(NC(=O)OC(C)(C)C)ccc2nc(NC(C)(C)C(=O)NCc3ccncc3)oc(=O)c12 [Compound No.34, (5-Methyl-2-{1-methyl-1-[(pyridin-4-ylmethyl)-carbamoyl]-ethylamino}-4-oxo-4H-benzo[d][1,3]oxazin-6-yl)-carbamic acid tert-butyl ester] | 102.0
5 | 5.7 | 6.00 | Cc1c(NC(=O)c2ccc(-c3ccccc3)cc2)ccc2nc(NC(C)(C)C(=O)N(C)CCc3ccccn3)oc(=O)c12 [Compound No.169, Biphenylyl-4-carboxylic acid (5-methyl-2-{1-methyl-1-[methyl-(2-pyridin-2-yl-ethyl)-carbamoyl]-ethylamino}-4-oxo-4H-benzo[d][1,3]oxazin-6-yl)-amide] | 7.0
6 | > 12.5 | 5.82 | Cc1c(NC(=O)c2ccccc2I)ccc2nc(NC(C)(C)C(=O)N(C)CCc3ccccn3)oc(=O)c12 [Compound No.155, 2-Iodo-N-(5-methyl-2-{1-methyl-1-[methyl-(2-pyridin-2-yl-ethyl)-carbamoyl]-ethylamino}-4-oxo-4H-benzo[d][1,3]oxazin-6-yl)-benzamide] | 69.1
7 | 10.1 | 5.28 | Cc1c(NC(=O)OC(C)(C)C)ccc2nc(N3Cc4ccccc4C[C@H]3C(=O)N(C)CCc3ccccn3)oc(=O)c12 [Compound No.99, (5-Methyl-2-{3S-[methyl-(2-pyridin-2-yl-ethyl)-carbamoyl]-3,4-dihydro-1H-isoquinolin-2-yl}-4-oxo-4H-benzo[d][1,3]oxazin-6-yl)-carbamic acid tert-butyl ester] | 53.2
8 | 8.8 | 5.85 | Cc1c(NC(=O)OC(C)(C)C)ccc2nc(N3C[C@H](OCc4ccccc4)C[C@H]3C(=O)NCc3ccccn3)oc(=O)c12 [Compound No.109, (2-{4R-Benzyloxy-2S-[(pyridin-2-ylmethyl)-carbamoyl]-pyrrolidin-1-yl}-5-methyl-4-oxo-4H-benzo[d][1,3]oxazin-6-yl)-carbamic acid tert-butyl ester] | 58.5
9 | > 12.5 | 6.00 | Cc1c(NC(=O)OC(C)(C)C)ccc2nc(N(C)[C@@H](C)C(=O)NCc3ccncc3)oc(=O)c12 [Compound No.73, [5-Methyl-2-(methyl-{1S-[(pyridin-4-ylmethyl)-carbamoyl]-ethyl}-amino)-4-oxo-4H-benzo[d][1,3]oxazin-6-yl]-carbamic acid tert-butyl ester] | 79.8
10 | ≥ 12.5 | 5.43 | Cc1c(NC(=O)c2ccc3c(c2)OCO3)ccc2nc(NC(C)(C)C(=O)N(C)CCc3ccccn3)oc(=O)c12 [Compound No.193, Benzo[1,3]dioxol-5-carboxylic acid (5-methyl-2-{1-methyl-1-[methyl-(2-pyridin-2-yl-ethyl)-carbamoyl]-ethylamino}-4-oxo-4H-benzo[d][1,3]oxazin-6-yl)-amide] | 67.0
11 | 3.7 | 5.92 | Cc1c(NC(=O)OC(C)(C)C)ccc2nc(N[C@@H](CCc3ccccc3)C(=O)N(C)CCc3ccccn3)oc(=O)c12 [Compound No.48, (5-Methyl-2-{1S-[methyl-(2-pyridin-2-yl-ethyl)-carbamoyl]-3-phenyl-propylamino}-4-oxo-4H-benzo[d][1,3]oxazin-6-yl)-carbamic acid tert-butyl ester] | 44.2
12 | > 12.5 | 5.70 | Cc1c(NC(=O)CCl)ccc2nc(NC(C)(C)C(=O)N(C)CCc3ccccn3)oc(=O)c12 [Compound No.189, 2-[6-(2-Chloro-acetylamino)-5-methyl-4-oxo-4H-benzo[d][1,3]oxazin-2-ylamino]-2,N-dimethyl-N-(2-pyridin-2-yl-ethyl)-propionamide] | 41.0
13 | 4.7 | 5.62 | Cc1c(NC(=O)OC(C)(C)C)ccc2nc(N[C@@H](CC(C)C)C(=O)N(C)Cc3ccccn3)oc(=O)c12 [Compound No.62, {5-Methyl-2-[3-methyl-1S-(methyl-pyridin-2-ylmethyl-carbamoyl)-butylamino]-4-oxo-4H-benzo[d][1,3]oxazin-6-yl}-carbamic acid tert-butyl ester] | 83.9
14 | > 12.5 | 5.80 | Cc1c(NC(=O)OC(C)(C)C)ccc2nc(N3CCCC[C@H]3C(=O)NCc3ccccn3)oc(=O)c12 [Compound No.102, (5-Methyl-4-oxo-2-{2S-[(pyridin-2-ylmethyl)-carbamoyl]-piperidin-1-yl}-4H-benzo[d][1,3]oxazin-6-yl)-carbamic acid tert-butyl ester] | 64.4
15 | > 25 | 5.00 | Cc1c(NC(=O)OC(C)(C)C)ccc2nc(N[C@@H](CC(C)C)C(=O)NCc3ccncc3)oc(=O)c12 [Compound No.38, (5-Methyl-2-{3-methyl-1S-[(pyridin-4-ylmethyl)-carbamoyl]-butylamino}-4-oxo-4H-benzo[d][1,3]oxazin-6-yl)-carbamic acid tert-butyl ester] | 105.0
16 | 6 | 6.00 | Cc1c(NC(=O)OC(C)(C)C)ccc2nc(N(C)[C@@H](Cc3ccccc3)C(=O)NCc3cccnc3)oc(=O)c12 [Compound No.79, [5-Methyl-2-(methyl-{2-phenyl-1S-[(pyridin-3-ylmethyl)-carbamoyl]-ethyl}-amino)-4-oxo-4H-benzo[d][1,3]oxazin-6-yl]-carbamic acid tert-butyl ester] | 38.5
17 | 11.5 | 5.59 | Cc1c(NC(=O)OC(C)(C)C)ccc2nc(N(C)[C@@H](Cc3ccccc3)C(=O)N(C)CCc3ccccn3)oc(=O)c12 [Compound No.83, [5-Methyl-2-(methyl-{1S-[methyl-(2-pyridin-2-yl-ethyl)carbamoyl]-2-phenyl-ethyl}-amino)-4-oxo-4H-benzo[d][1,3]oxazin-6-yl]-carbamic acid tert-butyl ester] | 66.6
